Measurements from ChEMBL document CHEMBL1201862, “PubChem BioAssay data set” (2004).
Calls of active or inactive are those of the source.

What was measured:
[1] = target: Intestinal-type alkaline phosphatase (Mus musculus, UniProt P24822); experiment: PubChem AID 488874; assay type: functional
[2] = target: T1, Intestinal-type alkaline phosphatase (Homo sapiens, UniProt P09923); experiment: human IAP activators, dose response, biochemical, luminescent, uHTS hits, set 2 (AID 488817); assay type: functional;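 also: potency of activators that raise enzyme activity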
T1 sequence (P09923 whole entry): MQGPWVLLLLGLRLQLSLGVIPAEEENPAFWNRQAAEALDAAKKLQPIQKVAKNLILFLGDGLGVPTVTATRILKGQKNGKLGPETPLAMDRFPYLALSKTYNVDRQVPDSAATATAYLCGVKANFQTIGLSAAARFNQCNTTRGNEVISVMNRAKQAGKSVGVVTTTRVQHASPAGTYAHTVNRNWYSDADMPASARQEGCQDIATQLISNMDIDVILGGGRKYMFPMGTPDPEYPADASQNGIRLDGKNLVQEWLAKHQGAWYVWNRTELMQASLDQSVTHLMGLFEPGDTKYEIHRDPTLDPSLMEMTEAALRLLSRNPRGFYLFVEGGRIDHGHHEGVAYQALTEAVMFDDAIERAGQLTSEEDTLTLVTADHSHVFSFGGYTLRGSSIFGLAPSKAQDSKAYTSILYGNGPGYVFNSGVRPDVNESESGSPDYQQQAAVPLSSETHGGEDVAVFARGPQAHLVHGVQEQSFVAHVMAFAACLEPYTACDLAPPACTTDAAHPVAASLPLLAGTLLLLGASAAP

[3] = target: T1, Intestinal-type alkaline phosphatase; experiment: human intestinal alkaline phosphatase activators, dose response, biochemical, luminescence, uHTS hits (AID 463120); assay type: functional
[4] = target: T2, Alkaline phosphatase, tissue-nonspecific isozyme (Homo sapiens, UniProt P05186); experiment: TNAP enzyme activators, dose response, selectivity assay for human IAP activator project, biochemical, TNAP isozyme, human IAP uHTS hits (AID 488886); assay type: functional;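 also: potency of compounds raising TNAP activity as a selectivity check on IAP activators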
T2 sequence (P05186 whole entry): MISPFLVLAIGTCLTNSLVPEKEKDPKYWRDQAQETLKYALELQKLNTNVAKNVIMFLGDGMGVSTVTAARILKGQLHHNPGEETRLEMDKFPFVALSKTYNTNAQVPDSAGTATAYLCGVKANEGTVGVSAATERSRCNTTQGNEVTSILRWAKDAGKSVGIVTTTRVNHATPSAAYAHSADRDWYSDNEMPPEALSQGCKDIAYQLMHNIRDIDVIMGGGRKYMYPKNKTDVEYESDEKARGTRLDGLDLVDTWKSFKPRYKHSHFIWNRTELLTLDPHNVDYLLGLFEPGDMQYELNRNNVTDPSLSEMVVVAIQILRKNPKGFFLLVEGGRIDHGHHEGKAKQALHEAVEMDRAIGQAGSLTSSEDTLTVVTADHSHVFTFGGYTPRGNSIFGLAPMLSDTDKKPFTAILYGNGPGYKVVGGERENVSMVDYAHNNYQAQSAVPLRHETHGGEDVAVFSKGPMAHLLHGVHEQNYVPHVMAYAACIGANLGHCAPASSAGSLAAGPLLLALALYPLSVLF

Cytochrome P450 2D6 = Cytochrome P450 2D6 (Homo sapiens, UniProt P10635);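 also: CYP2D6 member of a cytochrome P450 panel assay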
Sequence of Cytochrome P450 2D6 (P10635 whole entry): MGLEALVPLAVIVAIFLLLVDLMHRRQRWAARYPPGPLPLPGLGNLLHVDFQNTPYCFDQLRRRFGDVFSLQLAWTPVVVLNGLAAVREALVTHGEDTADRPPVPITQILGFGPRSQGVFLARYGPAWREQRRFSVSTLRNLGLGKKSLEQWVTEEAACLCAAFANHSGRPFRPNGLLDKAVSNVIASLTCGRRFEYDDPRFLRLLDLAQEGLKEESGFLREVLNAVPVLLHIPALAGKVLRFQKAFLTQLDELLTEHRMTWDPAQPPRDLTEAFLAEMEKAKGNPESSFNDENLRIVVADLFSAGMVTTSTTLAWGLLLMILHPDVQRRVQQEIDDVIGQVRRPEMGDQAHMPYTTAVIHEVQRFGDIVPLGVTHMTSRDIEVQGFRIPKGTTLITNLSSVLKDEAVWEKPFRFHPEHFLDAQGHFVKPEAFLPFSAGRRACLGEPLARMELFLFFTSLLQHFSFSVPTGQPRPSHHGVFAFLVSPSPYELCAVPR

Cytochrome P450 1A2 = target: T3, Cytochrome P450 1A2 (Homo sapiens, UniProt P05177);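 also: PubChem cytochrome P450 panel assay, CYP1A2 panel member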
T3 sequence (P05177 whole entry): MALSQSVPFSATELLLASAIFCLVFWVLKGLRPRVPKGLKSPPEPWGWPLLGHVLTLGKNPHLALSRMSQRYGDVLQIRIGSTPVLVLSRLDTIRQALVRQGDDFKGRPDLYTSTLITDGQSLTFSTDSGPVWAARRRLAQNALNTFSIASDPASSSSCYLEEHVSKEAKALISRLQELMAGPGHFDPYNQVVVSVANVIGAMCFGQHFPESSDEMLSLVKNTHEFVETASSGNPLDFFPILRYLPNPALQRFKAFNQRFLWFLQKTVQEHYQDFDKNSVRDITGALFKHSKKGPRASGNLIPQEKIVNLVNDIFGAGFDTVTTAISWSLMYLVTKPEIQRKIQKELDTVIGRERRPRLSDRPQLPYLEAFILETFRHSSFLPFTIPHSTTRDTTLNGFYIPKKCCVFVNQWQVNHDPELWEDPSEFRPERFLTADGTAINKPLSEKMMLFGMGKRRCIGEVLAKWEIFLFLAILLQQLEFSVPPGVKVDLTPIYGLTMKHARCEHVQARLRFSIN

HEK293 = experiment: cells; details: Homo sapiens;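 also: cells exposed to compound for 14 hours overnight before viability readout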
[5] = target: Nucleotide-binding oligomerization domain-containing protein 1 (Homo sapiens, UniProt Q9Y239); experiment: NOD1 signaling inhibitors, SAR follow-up, revised (AID 2333); assay type: functional
Sequence of Nucleotide-binding oligomerization domain-containing protein 1 (Q9Y239 whole entry, the tested form may be a part): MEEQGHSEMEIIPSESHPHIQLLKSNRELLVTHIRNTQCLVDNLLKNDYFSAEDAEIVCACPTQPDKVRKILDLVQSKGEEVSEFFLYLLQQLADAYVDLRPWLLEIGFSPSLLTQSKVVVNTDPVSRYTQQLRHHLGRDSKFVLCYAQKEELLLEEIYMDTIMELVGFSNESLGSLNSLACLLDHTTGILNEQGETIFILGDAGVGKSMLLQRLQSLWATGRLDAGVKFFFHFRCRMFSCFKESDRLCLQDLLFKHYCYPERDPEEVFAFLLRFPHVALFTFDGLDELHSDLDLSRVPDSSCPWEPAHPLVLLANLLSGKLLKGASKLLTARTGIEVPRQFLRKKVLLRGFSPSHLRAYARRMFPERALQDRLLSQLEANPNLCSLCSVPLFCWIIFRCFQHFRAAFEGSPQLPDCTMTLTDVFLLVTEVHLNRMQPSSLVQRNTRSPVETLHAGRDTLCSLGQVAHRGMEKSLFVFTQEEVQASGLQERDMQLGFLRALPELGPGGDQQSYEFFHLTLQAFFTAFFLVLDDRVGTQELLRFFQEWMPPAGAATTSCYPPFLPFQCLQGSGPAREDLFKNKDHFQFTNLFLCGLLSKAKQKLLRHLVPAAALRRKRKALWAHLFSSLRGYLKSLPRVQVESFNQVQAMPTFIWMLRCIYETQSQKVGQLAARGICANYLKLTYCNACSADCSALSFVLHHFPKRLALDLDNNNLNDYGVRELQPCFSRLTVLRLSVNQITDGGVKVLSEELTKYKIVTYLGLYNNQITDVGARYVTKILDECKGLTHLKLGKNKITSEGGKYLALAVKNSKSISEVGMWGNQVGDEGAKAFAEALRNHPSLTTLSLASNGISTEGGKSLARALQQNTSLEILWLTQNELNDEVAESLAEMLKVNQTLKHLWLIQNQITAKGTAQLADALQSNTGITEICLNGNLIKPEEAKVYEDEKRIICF

Tumor necrosis factor = Tumor necrosis factor (Homo sapiens, UniProt P01375); experiment: TNFa-triggered NF-kB activation inhibitors, SAR follow-up, cell-based, revised (AID 2337); assay type: functional
Sequence of Tumor necrosis factor (P01375 whole entry): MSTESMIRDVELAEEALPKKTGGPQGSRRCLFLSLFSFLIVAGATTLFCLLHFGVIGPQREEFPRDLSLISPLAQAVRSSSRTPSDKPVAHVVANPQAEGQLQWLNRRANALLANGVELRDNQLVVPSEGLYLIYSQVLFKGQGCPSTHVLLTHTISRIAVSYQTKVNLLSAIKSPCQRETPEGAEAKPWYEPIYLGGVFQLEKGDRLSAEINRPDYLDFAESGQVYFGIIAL

[6] = target: Lysine-specific demethylase 4C (Homo sapiens, UniProt Q9H3R0); experiment: GASC-1 (JMJD2C) histone demethylase inhibitors, dose response, biochemical, DELFIA europium, cherry-picked samples (AID 488835); assay type: functional
Sequence of Lysine-specific demethylase 4C (Q9H3R0 whole entry): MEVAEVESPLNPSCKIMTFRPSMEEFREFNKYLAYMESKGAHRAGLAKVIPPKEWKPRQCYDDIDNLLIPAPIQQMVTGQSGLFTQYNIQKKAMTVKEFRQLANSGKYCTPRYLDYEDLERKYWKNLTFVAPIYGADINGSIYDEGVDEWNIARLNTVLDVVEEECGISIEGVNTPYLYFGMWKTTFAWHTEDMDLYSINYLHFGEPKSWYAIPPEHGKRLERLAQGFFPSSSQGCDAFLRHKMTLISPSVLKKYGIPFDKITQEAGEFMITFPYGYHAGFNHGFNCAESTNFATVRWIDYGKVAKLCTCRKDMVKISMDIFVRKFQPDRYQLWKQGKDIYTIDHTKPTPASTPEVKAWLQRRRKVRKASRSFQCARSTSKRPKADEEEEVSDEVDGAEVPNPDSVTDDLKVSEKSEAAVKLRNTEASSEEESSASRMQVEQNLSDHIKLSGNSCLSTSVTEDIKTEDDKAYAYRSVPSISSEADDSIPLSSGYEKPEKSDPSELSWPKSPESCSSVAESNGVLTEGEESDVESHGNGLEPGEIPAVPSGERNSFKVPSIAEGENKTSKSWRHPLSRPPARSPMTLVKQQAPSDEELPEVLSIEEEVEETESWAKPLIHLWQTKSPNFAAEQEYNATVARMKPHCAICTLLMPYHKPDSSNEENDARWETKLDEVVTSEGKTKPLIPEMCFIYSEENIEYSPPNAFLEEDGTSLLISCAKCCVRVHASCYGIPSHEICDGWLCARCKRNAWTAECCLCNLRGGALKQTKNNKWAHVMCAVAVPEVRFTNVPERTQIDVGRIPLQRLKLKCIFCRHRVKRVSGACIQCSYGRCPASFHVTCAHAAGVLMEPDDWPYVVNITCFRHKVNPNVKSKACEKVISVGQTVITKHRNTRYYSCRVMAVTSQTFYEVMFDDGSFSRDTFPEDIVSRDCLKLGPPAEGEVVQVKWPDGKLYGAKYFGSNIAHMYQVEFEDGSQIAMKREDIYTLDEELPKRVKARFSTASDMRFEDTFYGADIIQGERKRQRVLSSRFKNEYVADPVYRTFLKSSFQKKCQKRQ

Vero [7] = experiment: cells; assay type: functional; details: Chlorocebus sabaeus
Vero [8] = experiment: cells; assay type: functional, cell-based; details: Chlorocebus sabaeus
[9] = HepG2 cell cytotoxicity, dose response, cytotoxicity control for Shn3 inhibitor project, CellTiter-Glo, cherry-picked (AID 624134); assay type: functional, cell-based
[10] = control 3'UTR Renilla luciferase suppression, dose response, counter-screen for Shn3 inhibitor project, cell-based, Clone20-Shn3RL, cherry-picked (AID 624133); assay type: functional
[11] = Shn3 3'UTR reporter inhibitors, dose response, cell-based, Clone20 osteoblasts, firefly luciferase, cherry-picked (AID 624132); assay type: functional;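 also: firefly luciferase luminescence from reporter carrying the Shn3 3'UTR in osteoblasts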
BJ [12] = experiment: cytotoxicity toward BJ-TERT fibroblasts, dose response, cell-based, RAS-independent, luminescence (AID 1933); assay type: functional; details: Homo sapiens
[13] = cytotoxicity toward DRD oncogenic fibroblasts, dose response, cell-based, non-viral oncogenic, luminescence (AID 1934); assay type: functional; details: Homo sapiens
[14] = C. albicans growth with fluconazole, confirmation, fluorescence, retest (AID 2467); assay type: functional, cell-based
BJ [15] = experiment: cells; assay type: functional, cell-based; details: Homo sapiens
[16] = NIH-3T3 fibroblast cytotoxicity, dose response, cytotoxicity control, cell-based, fluorescence, Alamar Blue, secondary assay (AID 2327); assay type: functional;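 also: NIH-3T3 mouse fibroblasts cultured with fluconazole at 8 µg/mL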
BJ [17] = experiment: cytotoxicity toward Ras-transformed BJeLR fibroblasts, dose response, cell-based, alamar blue fluorescence, cherrypicked samples (AID 2631); assay type: functional; details: Homo sapiens;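 also: confirmatory dose-response assay in RAS-dependent BJ fibroblasts engineered with TERT, LT and ST, with cytotoxicity read by fluorescence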
BJ [18] = experiment: cytotoxicity toward BJ-TERT-LT-ST fibroblasts, dose response, cell-based, RAS-independent, luminescence (AID 1935); assay type: functional; details: Homo sapiens;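 also: BJ fibroblasts immortalized with TERT plus LT and ST oncogenes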
INS1 = experiment: beta cell apoptosis inhibitors, cytokine rescue, dose response, luminescence, retest (AID 449756); assay type: functional, cell-based; details: Rattus norvegicus;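 also: cell death triggered by IL-1 beta plus TNF-alpha plus IFN-gamma mixture; protective hits raise ATP signal compared with cytokine alone wells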
[19] = cytotoxicity in HEK-293T cells, dose response, cytotoxicity control for TCR NF-kB inhibitor project, luminescence, T-cell screen hits (AID 489026); assay type: functional, cell-based;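 also: cells exposed to compound about 14 hours before the viability readout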
cells [20] = assay type: functional, cell-based
cells [21] = assay type: functional, cell-based; remark: listed apart in the source

Sequence of Intestinal-type alkaline phosphatase (Mus musculus, UniProt P24822) (P24822 whole entry): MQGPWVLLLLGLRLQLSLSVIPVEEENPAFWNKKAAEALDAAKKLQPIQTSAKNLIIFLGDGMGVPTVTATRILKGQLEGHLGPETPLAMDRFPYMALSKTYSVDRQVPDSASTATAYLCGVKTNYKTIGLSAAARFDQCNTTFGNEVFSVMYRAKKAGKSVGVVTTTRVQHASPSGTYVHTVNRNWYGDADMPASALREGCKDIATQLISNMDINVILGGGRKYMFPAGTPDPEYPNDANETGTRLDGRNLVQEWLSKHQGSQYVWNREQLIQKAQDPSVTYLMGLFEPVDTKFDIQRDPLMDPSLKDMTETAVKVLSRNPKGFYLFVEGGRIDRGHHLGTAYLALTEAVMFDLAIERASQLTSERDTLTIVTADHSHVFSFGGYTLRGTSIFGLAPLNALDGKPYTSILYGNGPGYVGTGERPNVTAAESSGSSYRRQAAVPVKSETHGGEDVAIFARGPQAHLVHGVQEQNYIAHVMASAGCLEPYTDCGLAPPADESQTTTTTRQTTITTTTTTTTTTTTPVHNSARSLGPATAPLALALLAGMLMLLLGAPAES

For `Cc1ccsc1C(=O)NNC(=S)NC1CCCCC1`, the IC50 [1] was 56.7 µM (active), the EC50 [2] was 15 µM (active) and the EC50 [3] was 10.3 µM (active). For the same compound, the EC50 [4] was 13.9 µM (active).

In the case of `COc1cccc2c1C(=O)c1c(O)c3c(c(O)c1C2=O)C[C@](O)(C(C)=O)C[C@H]3O[C@@H]1C[C@H](N)[C@H](O)[C@H](C)O1`, the AC50 (Cytochrome P450 2D6) was “inactive” and the AC50 (Cytochrome P450 1A2) was “inactive”.

For `CSc1ccc(NC(=O)c2ccc(CN3CCc4ccccc4C3)cc2)cc1`, the IC50 (HEK293) was 7.86 µM (active), the IC50 [5] was 0.243 µM (active) and the IC50 (Tumor necrosis factor) was 0.372 µM (active).

For `CCN(C[C@H]1N[C@@](CC)(C(=O)OC)[C@H]2C(=O)N(Cc3ccccc3)C(=O)[C@@H]12)S(=O)(=O)c1ccc(C(C)(C)C)cc1`, the AC50 [6] was 42.6 µM (active).

With `CCCCn1c(-c2nonc2NC(=O)c2ccccc2Cl)nc2ccccc21` the CC50 (Vero [7]) was 11.8 µM (active), the IC50 (Vero [8]) was 0.73 µM (active) and the AC50 [9] was > 70 µM (inactive). For the same compound, the AC50 [10] was 1.11 µM (active) and the AC50 [11] was 1.39 µM (active).

With `CCN(CC)c1ccc(/C=N/NC(=O)c2nnn(-c3nonc3N)c2C(C)C)c(O)c1` the IC50 [1] was 78 µM (active), the EC50 (BJ [12]) was 7.4 µM (inconclusive) and the EC50 [13] was 8.09 µM (inconclusive). For the same compound, the EC50 [14] was 0.401 µM (active), the EC50 (BJ [15]) was 2.83 µM (active) and the EC50 [2] was 20.6 µM (active). The EC50 [16] was 4 µM (active), the EC50 [3] was 10.5 µM (active) and the EC50 (BJ [17]) was 0.199 µM (active). For the same compound, the EC50 (BJ [18]) was 6.05 µM (inconclusive), the AC50 (INS1) was < 0.195 µM (active) and the IC50 [19] was > 80 µM (inactive). For the same compound, the EC50 (cells [20]) was > 350 µM (not active), the EC50 (cells [21]) was 5.38 µM (active) and the EC50 [4] was 19 µM (active).
